According to patent US20030229114A1, “Pyrroloquinoline quinone drugs as a neuroprotectant and methods of use thereof” (priority 2002, published 2003):
Where “and” joins values, the source holds several entries; their conditions need not be identical. Equal values may be shown once. Entries after “also recorded” stand apart in the source; their conditions may differ.

Legend:
G93A-SOD transgenic mice = conditions: cited from earlier work
[1] = system: cultured rat forebrain neurons; assay: Measurement of intracellular cGMP in neuronal cultures (enzyme-linked immunoassay); assay type: cell-based
Experimental: (§1) Medium was not subsequently changed.
Intracellular cGMP was assayed by enzyme-linked immunoassay (Amersham). Cultures were washed three times, and then medium was replaced by EBSS with or without PQQ or SOD. The non-specific phosphodiesterase inhibitor, 3-isobutyl-1-methylxanthine (IBMX) at 100 μM was present in all conditions. DEA/NO, SIN-1 and peroxynitrite were added for 5 min, and then the medium was replaced with 200 μl of releasing reagent provided in the kit. The plates were agitated for 20 min at room temperature, and 20 μl of acetylation reagent was added. After 5 min, 50 μl samples were taken for assay.

[2] = system: cultured rat forebrain neurons; assay: Survival assay of neuronal cultures (Alamar Blue reduction, 24 hr); conditions: for Cell (neuronal) survival: ONOO− 100 μM alone, without PQQ; for Effect on neurotoxicity induced by NMDA plus DETA/NO: PBN at 10 mM, TEMPO at 1 mM applied 1 hr before; for Synergism with NMDA in producing neurotoxicity: DEA/NO 100 μM, DPT/NO 300 μM
Experimental: Neuronal cultures were prepared from embryonic day 16 Sprague Dawley rat fetuses using methods similar to those previously described (Dichter, 1978) but modified to produce cultures that contained <1% astrocytes (Rosenberg and Aizenman, 1989; Rosenberg, 1991; Rosenberg et al., 1992; Wang et al., 1998). Cultures were initially plated on poly-L-lysine-coated 24-well plastic plates (Costar, Cambridge, Mass.) using an 80:10:10 (v/v) mixture ofDMEM (Life Technologies 11960-010), Ham's F-12 (Sigma, N-4888), heat-inactivated iron-supplemented calf serum (Hyclone A2151), containing 2 mM glutamine, 25 mM HEPES, 24 U/ml penicillin, and 24 μg/ml streptomycin and maintained in a 5% CO2 (balance air) incubator at 36° C. Cell proliferation was inhibited by exposure to 5 μM cytosine arabinoside at 24 hr in vitro for 72 hr. On the fourth day of culture, the medium was completely removed and replaced with 90% MEM, 10% Nuserum IV (Collaborative Research), 2 mM glutamine, 5 mM HEPES, containing 50 units/ml superoxide dismutase (Boehringer Mannheim, Indianapolis, Ind.), 20 units/ml catalase (Sigma CV-40), total glucose 11 mM, and total sodium bicarbonate 9.3 mM, plus 2% B27 supplement (Life Technologies 17504-036). Medium was not subsequently changed. To prevent evaporation of water, culture dishes were kept in wet dishes containing filter paper that was always kept wet.
In all experiments, 24-well plates were first washed three times in Hank's balanced salt solution (HBSS) containing 0.1% bovine serum albumin (BSA), and then they were placed in Earle's balanced salt solution (EBSS, which is composed of 116 mM NaCl, 5.4 mM KCl, 1.8 mM CaCl2, 0.8 mM MgSO4, 26 mM NaHCO3, 1 mM NaH2PO4 and 5.5 mM D-glucose). Experiments were carried out exclusively in EBSS. […] PQQ was directly dissolved in EBSS.
Survival of cells was determined after 24 hr exposure to the test compounds by assessing the ability of cultures to reduce Alamar Blue (Trek Diagnostic Systems, Inc., Westlake, Ohio) as an index of viability (McGahon et al., 1995). Details of this procedure have been provided elsewhere (Back et al., 1998, 1999). In brief, the test medium was removed after 24 hr, and then replaced with EBSS plus a 1:100 dilution of Alamar Blue. After 2 hr exposure, the medium was diluted 50-fold with water, and the fluorescence intensity was determined in a Hitachi fluorescence spectrophotometer using an excitation wavelength of 530 nm and an emission wavelength of 590 nm. The photomultiplier voltage was set at 700 V. In some experiments, the cell viability determined by Alamar Blue was compared to that determined by the assay of lactate dehydrogenase (LDH) release (Koh and Choi, 1987).

[3] = system: cultured rat forebrain neurons; assay: Assay of intracellular ATP in neuronal cultures (firefly luciferase); assay type: cell-based
Experimental: as §1
Experiments were carried out exclusively in EBSS. […] PQQ was directly dissolved in EBSS.
The Bioluminescent Somatic Cell Assay kit from Sigma (catalog No. FL-ASC) was used for assay of ATP as previously described (Rosenberg et al., 2000). At selected time points after addition of drug or vehicle, medium was removed, and then replaced with 200 μl of cell lysis agent. After brief agitation, the medium was transferred to microcentrifuge tubes that contained 200 μl of water. The tubes were placed on wet ice until assay. ATP assay mix was used at 25-fold dilution, and 100 μl of the extract was assayed.

Oligodendrocytes = assay: In vitro white matter injury assay: SIN-1 toxicity in oligodendrocytes; assay type: cell-based; conditions: 2 hr exposure in EBSS; examined at 24 hr
Experimental: Oligodendrocytes were exposed to various concentrations of SIN-1 (0, 0.25, 0.5, 1 and 2 mM) in EBSS for 2 hr with or without PQQ (100 μM), then washed with HBSS containing 0.1% BSA for 2 times. Oligodendrocytes were then returned to the culture medium. The neurotoxicity was examined at 24 hr.
To illustrate the neuroprotective benefits of the invention, PQQ was used to show oligodendrocytes protection from cell toxicity in an in vitro white matter injury assay. Oligodendrocytes were exposed to various concentrations of SIN-1 (0, 0.25, 0.5, 1 and 2 mM) in EBSS for 2 hr with or without PQQ (100 μM), then washed with HBSS containing 0.1% BSA for 2 times. Oligodendrocytes were then returned to the culture medium. The neurotoxicity was examined at 24 hr.

BSA = assay: Western blot of BSA tyrosine nitration, cell-free (anti-nitrotyrosine antibody); assay type: biochemical, bovine; conditions: SIN-1 1 mM alone
Experimental: BSA (0.5 mg/ml) in EBSS with or without PQQ was exposed to SIN-1 or peroxynitrite for 1 hr, and then 4× sample buffer (40% glycerol, 20% β-mercaptoethanol, 0.004% bromophenol blue, 6.4% SDS, 25% 1M Tris-HCl, pH 6.8) was added. After the samples were heated for 5 min, 2 μg protein per lane was subjected to SDS-PAGE analysis, followed by transfer to PVDF membrane (NEN Life Science, Boston, Mass.) and reacted with a mouse anti-nitrotyrosine monoclonal antibody (Upstate Biotechnology). Proteins were visualized with horseradish peroxidase-conjugated sheep anti-mouse immunoglobulin G (IgG) followed by detection with enhanced chemiluminescence.

[4] = five minutes, agent alone: SIN-1 100 μM, ONOO− 100 μM or DEA/NO 10 μM, IBMX 100 μM
[5] = nitric oxide donor 1 mM alone (FIG. 6B)
[6] = nitric oxide donor 1 mM without MK-801 (FIG. 5A)
[7] = one hour after nitric oxide donor 1 mM alone

COc1cccc(C=NCCN=Cc2cccc(OC)c2[O-])c1[O-].[Cl-].[Mn+3] [EUK-134]
Effect on protein tyrosine nitration (G93A-SOD transgenic mice): reduced protein tyrosine nitration | Effect on survival of transgenic animals (G93A-SOD transgenic mice): prolonged survival

O=NOO [ONOO^−, peroxynitrite]
Intracellular cGMP content [1, 4]: 111±11.2 % of control and 97±14.4 % of control | Intracellular cGMP content ([1]; five minutes, agent alone: SIN-1 100 μM, ONOO− 100 μM or DEA/NO 10 μM, IBMX 100 μM, listed as peroxynitrite): 95.6±4.3 % of control | Cell (neuronal) survival [2]: 52.4±0.4% | Cell (neuronal) survival ([2]; listed as peroxynitrite): 49±7.3% | Intracellular ATP ([3]; of control values, 1 hr ONOO− 100 μM alone): 37±9.9% | Intracellular ATP ([3]; of control values, 1 hr ONOO− 100 μM alone, listed as peroxynitrite): 40.5±11% | ATP level after 5 min exposure ([3]; peroxynitrite 100 μM, 5 min): 50 % of its original levels

CC1(C)CCCC(C)(C)N1[O] [TEMPO, 2,2,6,6-tetramethyl-1-piperidinyl-1-oxyl]
Effect on neurotoxicity induced by NMDA plus DETA/NO ([2]; 24 hr exposure): not demonstrably neuroprotective; also recorded: no demonstrable effect | Effect on neurotoxicity induced by NMDA plus DETA/NO ([2]; four hour exposure): complete neuroprotection; also recorded: block

CCN(CC)/[N+]([O-])=N/O.CCNCC [DEA/NO, diethylamine NONOate]
Intracellular cGMP content [1, 4]: 250±15.5 % of control and 215±32.2 % of control and 318.5±31 % of control | Neurotoxicity to neurons in culture ([2]; 1 mM, in three out of six experiments): did not cause any toxicity | Synergism with NMDA in producing neurotoxicity [2]: synergism | Neuronal survival [2, 5]: 48.7±14.6 % of control | Neuronal survival [2, 6]: 18.2±5.3% | Intracellular ATP [3, 7]: 51.6±5.8 % of control and 50.8±20.9 % of control

NCCN(CCN)/[N+]([O-])=N/O [DETA/NO, diethylaminetriamine NONOate]
Synergistic effect with kainate in producing neurotoxicity ([2]; DETA/NO 300 μM with kainate 20 μM): synergistic effect | Neuronal survival [2, 5]: 25.2±10.6 % of control | Neuronal survival [2, 6]: 27.9±8.0%

O=C(O)c1ccc(C2=C3C=CC(=N3)C(c3ccc(C(=O)O)cc3)=c3ccc([nH]3)=C(c3ccc(C(=O)O)cc3)c3ccc([n-]3)C(c3ccc(C(=O)O)cc3)c3ccc2[n-]3)cc1.[Cl-].[Mn+3] (centres unmarked) [MnTBAP, Mn (III) tetrakis (4-benzoic acid) porphyrin chloride]
Effect on SIN-1 toxicity ([2]; MnTBAP 100 μM, SIN-1 1 mM): completely protected | Effect on neurotoxicity induced by SIN-1 ([2]; MnTBAP (TBAP), SIN-1 1 mM): completely blocks | Effect on ONOO− (peroxynitrite) toxicity ([2]; MnTBAP, ONOO− 100 μM): blocked; also recorded: fully protected

CC(C)(C)[N+]([O-])=Cc1ccccc1 [PBN, alpha-phenyl-N-tert butyl nitrone]
Effect on neurotoxicity induced by NMDA plus DETA/NO ([2]; 24 hr exposure): not demonstrably neuroprotective; also recorded: no demonstrable effect | Effect on neurotoxicity induced by NMDA plus DETA/NO ([2]; four hour exposure): complete neuroprotection; also recorded: block

NCCCN(CCCN)/[N+]([O-])=N/O [DPT/NO, dipropylenetriamine NONOate]
Synergism with NMDA in producing neurotoxicity [2]: synergism | Neuronal survival [2, 5]: 1.9±0.8 % of control | Neuronal survival [2, 6]: 6.5±5.3% | Intracellular ATP [3, 7]: 62.6±4.5 % of control and 64.9±13.7 % of control

[Cl-].[Mn+3].[O-]c1ccccc1C=NCCN=Cc1ccccc1[O-] [EUK-8]
Effect on protein tyrosine nitration (G93A-SOD transgenic mice): reduced protein tyrosine nitration | Effect on survival of transgenic animals (G93A-SOD transgenic mice): prolonged survival

SOD: bovine superoxide dismutase
Intracellular cGMP content ([1]; DEA/NO 10 μM in the presence of SOD 100 U/ml): 310.3±33.4 % of control | Intracellular cGMP content ([1]; ONOO− 100 μM in the presence of SOD 100 U/ml): 131±6 % of control | Intracellular cGMP content ([1]; SIN-1 100 μM in the presence of SOD 100 U/ml): 327.7±39.5 % of control | Effect on cGMP accumulation induced by SIN-1 ([1]; SOD 100 U/ml, SIN-1 100 μM): effect similar to that of PQQ; also recorded: enhanced | Effect on SIN-1 toxicity to neurons ([2]; SOD 100 U/ml co-applied with SIN-1 500 μM, no catalase): potentiated | Effect on SIN-1 toxicity ([2]; SOD 100 U/ml together with catalase (CAT) 100 U/ml, SIN-1 1 mM, 24 hr): completely blocked; also recorded: fully prevented | Neuronal survival ([2]; co-application of SOD 100 U/ml and SIN-1 500 μM): 16.8±6.3 % of control and 11.6±1.2 % of control

CN[C@H](CC(=O)O)C(=O)O [NMDA]
Toxicity to neurons, applied alone ([2]; 24 h exposure, NMDA 20 μM or DETA/NO 300 μM): does not produce toxicity

N=c1c[n+](N2CCOCC2)[n-]o1 [SIN-1, 3-morpholinosydnonimine]
Intracellular cGMP content [1, 4]: 192±10.7 % of control and 207.6±11.5 % of control and 220.5±39.4 % of control | EC50 (Oligodendrocytes): 345 ± 91 µM | Exposure time to maximal ATP depletion ([3]; SIN-1 1 mM): 1 h | Intracellular ATP ([3]; of control values, 1 hr exposure to SIN-1 1 mM alone): 43±15.6% and 43.3±18.7% | Nitration of BSA (BSA): strong nitration
